Data taken from ChEMBL document CHEMBL6109072, “Discovery of highly potent dual GSPT1/BRD4 degraders with anti-AML activity” (Eur J Med Chem, 2025).
The source made the active and inactive calls. The rule behind the calls is not given here.

Columns and labels:
KARPAS-299 = experiment: Antiproliferative activity against human KARPAS-299 cells incubated for 3 days by CCK8 assay; type: functional, cell-based
Raji = experiment: Antiproliferative activity against human Raji cells incubated for 3 days by CCK8 assay; type: functional, cell-based; details: 72 h
MOLM-13 [1] = experiment: Antiproliferative activity against human MOLM-13 cells incubated for 3 days by CCK8 assay; type: functional, cell-based; details: for IC50: MOLM-13, 72 h
[2] = target: T1, Protein cereblon/Bromodomain-containing protein 4 (Homo sapiens, UniProt O60885+Q96SW2); experiment: PROTAC activity at CRBN/BRD4 in human MOLM-13 cells assessed as BRD4 degradation at 1 uM incubated for 24 hrs by Western blot analysis; type: cell-based
OCI-AML-3 = experiment: Antiproliferative activity against human OCI-AML-3 cells incubated for 3 days by CCK8 assay; type: functional, cell-based
MOLM-13 [3] = experiment: Antiproliferative activity against human MOLM-13 cells assessed as cell viability at 0.1 uM incubated for 3 days by CCK8 assay relative to control; type: functional; details: MOLM-13, 72 h, time 3 day, read-out: Activity
NB-4 = experiment: Antiproliferative activity against human NB4 cells incubated for 3 days by CCK8 assay; type: functional, cell-based; details: for IC50: NB-4, 72 h
[4] = Toxicity in IL2Rg-null NSG mouse xenografted with human MOLM-13 cells expressing GFP-Fluc assessed as hemolysis measured after 48 hrs
[5] = target: Protein cereblon/Eukaryotic peptide chain release factor GTP-binding subunit ERF3A (Homo sapiens, UniProt Q96SW2+P15170); experiment: PROTAC activity at CRBN/GSPT1 in human MOLM-13 cells assessed as GSPT1 degradation at 100 nM incubated for 6 hrs by Western blot analysis; type: cell-based
Daudi = experiment: Antiproliferative activity against human Daudi cells incubated for 3 days by CCK8 assay; type: functional, cell-based; details: 72 h
HL-60 = experiment: Antiproliferative activity against human HL-60 cells incubated for 3 days by CCK8 assay; type: functional, cell-based; details: for IC50: HL-60, 72 h
SU-DHL-1 = experiment: Antiproliferative activity against human SU-DHL-1 cells incubated for 3 days by CCK8 assay; type: functional, cell-based; details: SU-DHL-1, 72 h
[6] = Toxicity in IL2Rg-null NSG mouse xenografted with human MOLM-13 cells expressing GFP-Fluc assessed as animal death measured after 48 hrs
[7] = target: T1, Protein cereblon/Bromodomain-containing protein 4; experiment: PROTAC activity at CRBN/BRD4 in human MOLM-13 cells assessed as BRD4 degradation at 100 nM incubated for 6 hrs by Western blot analysis; type: cell-based
THP-1 = experiment: Antiproliferative activity against human THP-1 cells incubated for 3 days by CCK8 assay; type: functional, cell-based; details: for IC50: THP-1, 72 h
[8] = target: T2, Protein cereblon/Eukaryotic peptide chain release factor GTP-binding subunit ERF3A (Mus musculus) (UniProt Q8C7D2+Q8R050); experiment: PROTAC activity at CRBN/GSPT1 in mouse A9 cells harboring pCDH-BSD-M6/pIRES-GFluc assessed as GSPT1 degradation at 0.8 to 20 uM incubated for 48 hrs by Western blot analysis; type: cell-based; details: dose 0.8-20 µM
[9] = target: T2, Protein cereblon/Eukaryotic peptide chain release factor GTP-binding subunit ERF3A (Mus musculus); experiment: PROTAC activity at CRBN/GSPT1 in mouse A9 cells assessed as fold increase in translational readthrough activity at 0.8 to 20 uM incubated for 48 hrs by Western blot analysis relative to control; type: cell-based; details: dose 0.8-20 µM
[10] = target: T2, Protein cereblon/Eukaryotic peptide chain release factor GTP-binding subunit ERF3A (Mus musculus); experiment: PROTAC activity at CRBN/GSPT1 in mouse A9 cells harboring pCDH-BSD-M6/pIRES-GFluc assessed as increase in translational readthrough activity at 0.8 to 20 uM incubated for 48 hrs by Western blot analysis; type: cell-based; details: dose 0.8-20 µM
A9 = experiment: Effect on eRF1 expression in mouse A9 cells harboring pCDH-BSD-M6/pIRES-GFluc at 0.8 to 20 uM incubated for 48 hrs by Western blot analysis; type: functional, cell-based; details: dose 0.8-20 µM

T1 sequence (Q96SW2 whole entry, looked up, other chains not shown): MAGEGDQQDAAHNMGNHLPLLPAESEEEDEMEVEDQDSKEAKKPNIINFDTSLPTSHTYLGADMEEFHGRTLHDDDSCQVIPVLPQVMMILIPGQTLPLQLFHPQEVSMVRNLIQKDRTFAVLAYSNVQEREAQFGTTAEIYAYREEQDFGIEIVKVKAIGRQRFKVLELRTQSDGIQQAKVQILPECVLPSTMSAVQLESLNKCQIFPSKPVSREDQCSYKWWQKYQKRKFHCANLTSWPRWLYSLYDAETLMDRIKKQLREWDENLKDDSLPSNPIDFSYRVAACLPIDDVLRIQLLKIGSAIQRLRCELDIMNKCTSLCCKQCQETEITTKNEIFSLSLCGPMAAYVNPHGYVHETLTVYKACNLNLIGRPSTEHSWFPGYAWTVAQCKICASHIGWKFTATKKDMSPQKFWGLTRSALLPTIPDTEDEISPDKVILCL
Chain of Protein cereblon/Eukaryotic peptide chain release factor GTP-binding subunit ERF3A (P15170 whole entry, looked up): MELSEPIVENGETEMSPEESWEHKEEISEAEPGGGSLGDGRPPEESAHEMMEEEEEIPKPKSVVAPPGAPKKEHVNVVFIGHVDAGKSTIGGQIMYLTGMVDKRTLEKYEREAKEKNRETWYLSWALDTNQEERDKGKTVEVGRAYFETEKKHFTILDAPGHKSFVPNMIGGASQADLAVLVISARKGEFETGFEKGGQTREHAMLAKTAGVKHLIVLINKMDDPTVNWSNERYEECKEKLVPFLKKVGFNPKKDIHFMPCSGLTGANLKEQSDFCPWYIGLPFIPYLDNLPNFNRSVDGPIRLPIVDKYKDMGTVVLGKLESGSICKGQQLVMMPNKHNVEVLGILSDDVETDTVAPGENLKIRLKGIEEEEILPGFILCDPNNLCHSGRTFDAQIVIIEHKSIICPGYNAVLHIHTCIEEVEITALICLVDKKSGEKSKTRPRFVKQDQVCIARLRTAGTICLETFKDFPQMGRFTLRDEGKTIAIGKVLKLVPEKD
Chain of Protein cereblon/Eukaryotic peptide chain release factor GTP-binding subunit ERF3A (Q96SW2 whole entry, looked up): as the sequence (Q96SW2 whole entry, looked up, other chains not shown) above
T2 sequence (Q8C7D2 whole entry, looked up): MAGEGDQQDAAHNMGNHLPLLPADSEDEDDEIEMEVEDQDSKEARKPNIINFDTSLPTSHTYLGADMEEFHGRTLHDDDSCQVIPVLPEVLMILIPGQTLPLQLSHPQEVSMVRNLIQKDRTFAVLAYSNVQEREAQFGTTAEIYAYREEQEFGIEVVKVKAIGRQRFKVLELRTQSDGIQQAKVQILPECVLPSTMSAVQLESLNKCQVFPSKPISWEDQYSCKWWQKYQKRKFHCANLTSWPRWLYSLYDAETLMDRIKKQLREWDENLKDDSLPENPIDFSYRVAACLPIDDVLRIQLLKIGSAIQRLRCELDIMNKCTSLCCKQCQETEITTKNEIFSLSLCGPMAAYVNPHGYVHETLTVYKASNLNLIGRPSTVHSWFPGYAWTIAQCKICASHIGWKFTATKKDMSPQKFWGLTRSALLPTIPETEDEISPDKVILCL
T2 sequence (Q8R050 whole entry, looked up): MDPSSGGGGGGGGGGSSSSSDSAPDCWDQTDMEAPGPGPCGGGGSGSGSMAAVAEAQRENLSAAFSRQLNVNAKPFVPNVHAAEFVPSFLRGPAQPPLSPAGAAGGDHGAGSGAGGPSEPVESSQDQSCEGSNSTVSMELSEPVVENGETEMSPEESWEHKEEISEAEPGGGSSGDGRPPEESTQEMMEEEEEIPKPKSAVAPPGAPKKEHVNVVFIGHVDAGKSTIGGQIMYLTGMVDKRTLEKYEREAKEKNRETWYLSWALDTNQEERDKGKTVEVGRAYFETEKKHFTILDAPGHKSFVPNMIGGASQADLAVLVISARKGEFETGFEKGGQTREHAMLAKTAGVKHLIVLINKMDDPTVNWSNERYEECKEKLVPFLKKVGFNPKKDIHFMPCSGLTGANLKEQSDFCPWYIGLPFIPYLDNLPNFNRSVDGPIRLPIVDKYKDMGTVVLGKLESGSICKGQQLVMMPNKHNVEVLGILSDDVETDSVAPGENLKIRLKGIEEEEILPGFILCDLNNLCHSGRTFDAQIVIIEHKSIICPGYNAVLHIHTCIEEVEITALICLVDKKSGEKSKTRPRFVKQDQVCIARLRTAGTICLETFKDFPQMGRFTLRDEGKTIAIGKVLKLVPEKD

Compound	IC50 (KARPAS-299; Homo sapiens, KARPAS-299, 72 h)	IC50 (Raji)	IC50 (MOLM-13 [1])	Activity [2]	IC50 (OCI-AML-3; Homo sapiens, OCI-AML-3, 72 h)	viability at 0.1 µM (MOLM-13 [3])	other results
O=C1CCC(N2Cc3cc(CNC(=O)C(F)(F)c4ccc(Cl)cc4)ccc3C2=O)C(=O)N1 (centres undefined)	> 10 µM	> 10 µM	0.181 µM	Active	> 10 µM	–	–
Cc1sc2c(c1C)C(c1ccc(Cl)cc1)=N[C@@H](CC(=O)N1CCN(C3CN(c4ccc5c(c4)C(=O)N(C4CCC(=O)NC4=O)C5=O)C3)CC1)c1nnc(C)n1-2 (some centres undefined)	–	–	0.0187 µM	Active	–	7.24%	–
Cc1sc2c(c1C)C(c1ccc(Cl)cc1)=N[C@@H](CC(=O)N1CCC(CN3CCN(c4cccc5c4C(=O)N(C4CCC(=O)NC4=O)C5=O)CC3)CC1)c1nnc(C)n1-2 (some centres undefined)	–	–	–	–	–	79.6%	–
Cc1sc2c(c1C)C(c1ccc(Cl)cc1)=N[C@@H](CC(=O)N1CC(CN3CCN(c4ccc5c(c4)C(=O)N(C4CCC(=O)NC4=O)C5=O)CC3)C1)c1nnc(C)n1-2 (some centres undefined)	–	–	0.0338 µM	Active	–	7.45%	–
Cc1sc2c(c1C)C(c1ccc(Cl)cc1)=N[C@@H](CC(=O)NCCCCNc1cccc3c1C(=O)N(C1CCC(=O)NC1=O)C3=O)c1nnc(C)n1-2 (some centres undefined)	7.72 µM	0.936 µM	0.422 µM	–	1.21 µM	–	–
Cc1sc2c(c1C)C(c1ccc(Cl)cc1)=N[C@@H](CC(=O)N1CCN(CC3CCN(c4cccc5c4C(=O)N(C4CCC(=O)NC4=O)C5=O)CC3)CC1)c1nnc(C)n1-2 (some centres undefined)	–	–	0.0466 µM	Active	–	18%	–
Cc1sc2c(c1C)C(c1ccc(Cl)cc1)=N[C@@H](CC(=O)N1CC(N3CCN(c4cccc5c4C(=O)N(C4CCC(=O)NC4=O)C5=O)CC3)C1)c1nnc(C)n1-2 (some centres undefined)	–	–	–	–	–	124%	–
Cc1sc2c(c1C)C(c1ccc(Cl)cc1)=N[C@@H](CC(=O)N1CCN(C3CN(c4cccc5c4C(=O)N(C4CCC(=O)NC4=O)C5=O)C3)CC1)c1nnc(C)n1-2 (some centres undefined)	–	–	–	–	–	66.2%	–
Cc1sc2c(c1C)C(c1ccc(Cl)cc1)=N[C@@H](CC(=O)N1CCN(C3CCN(c4ccc5c(c4)C(=O)N(C4CCC(=O)NC4=O)C5=O)CC3)CC1)c1nnc(C)n1-2 (some centres undefined)	0.0206 µM	0.0139 µM	0.00607 µM	Active	0.0173 µM	6.8%	IC50 (NB-4): 0.00426 µM; Activity [4]: Toxic; Activity [5]: Active; IC50 (Daudi): 0.0102 µM; IC50 (HL-60): 0.00738 µM; IC50 (SU-DHL-1): 0.0111 µM; Activity [6]: Toxic; Activity [7]: Active; IC50 (THP-1): 0.0164 µM
Cc1sc2c(c1C)C(c1ccc(Cl)cc1)=N[C@@H](CC(=O)N1CCC(CN3CCN(c4ccc5c(c4)C(=O)N(C4CCC(=O)NC4=O)C5=O)CC3)CC1)c1nnc(C)n1-2 (some centres undefined)	–	–	0.0614 µM	–	–	15.5%	–
Cc1sc2c(c1C)C(c1ccc(Cl)cc1)=N[C@@H](CC(=O)N1CCN(CC3CN(c4ccc5c(c4)C(=O)N(C4CCC(=O)NC4=O)C5=O)C3)CC1)c1nnc(C)n1-2 (some centres undefined)	0.33 µM	0.0821 µM	0.0135 µM	Active	0.0277 µM	8.1%	IC50 (NB-4): 0.00603 µM; Activity [5]: Active; IC50 (Daudi): 0.178 µM; IC50 (HL-60): 0.0191 µM; IC50 (SU-DHL-1): 0.035 µM; Activity [7]: Active; IC50 (THP-1): 0.032 µM
Cc1sc2c(c1C)C(c1ccc(Cl)cc1)=N[C@@H](CC(=O)N1CC(N3CCN(c4ccc5c(c4)C(=O)N(C4CCC(=O)NC4=O)C5=O)CC3)C1)c1nnc(C)n1-2 (some centres undefined)	–	–	0.0742 µM	–	–	9.49%	–
Cc1sc2c(c1C)C(c1ccc(Cl)cc1)=N[C@@H](CC(=O)N1CC(CN3CCN(c4cccc5c4C(=O)N(C4CCC(=O)NC4=O)C5=O)CC3)C1)c1nnc(C)n1-2 (some centres undefined)	–	–	–	–	–	110%	–
Cc1sc2c(c1C)C(c1ccc(Cl)cc1)=N[C@@H](CC(=O)N1CCC(N3CCN(c4cccc5c4C(=O)N(C4CCC(=O)NC4=O)C5=O)CC3)CC1)c1nnc(C)n1-2 (some centres undefined)	–	–	–	–	–	72%	–
Cc1sc2c(c1C)C(c1ccc(Cl)cc1)=N[C@@H](CC(=O)N1CCN(CC3CN(c4cccc5c4C(=O)N(C4CCC(=O)NC4=O)C5=O)C3)CC1)c1nnc(C)n1-2 (some centres undefined)	3.36 µM	0.605 µM	0.0149 µM	Active	0.0753 µM	11.7%	IC50 (NB-4): 0.0192 µM; Activity [5]: Active; IC50 (Daudi): 0.257 µM; IC50 (HL-60): 0.0637 µM; IC50 (SU-DHL-1): 0.117 µM; Activity [7]: Active; IC50 (THP-1): 0.103 µM
Cc1sc2c(c1C)C(c1ccc(Cl)cc1)=N[C@@H](CC(=O)N1CCN(C3CCN(c4cccc5c4C(=O)N(C4CCC(=O)NC4=O)C5=O)CC3)CC1)c1nnc(C)n1-2 (some centres undefined)	–	–	0.0372 µM	Active	–	19.3%	–
Cc1sc2c(c1C)C(c1ccc(Cl)cc1)=N[C@@H](CC(=O)N1CCC(N3CCN(c4ccc5c(c4)C(=O)N(C4CCC(=O)NC4=O)C5=O)CC3)CC1)c1nnc(C)n1-2 (some centres undefined)	–	–	0.0254 µM	–	–	7.55%	–
Cc1sc2c(c1C)C(c1ccc(Cl)cc1)=N[C@@H](CC(=O)NCCNc1cccc3c1C(=O)N(C1CCC(=O)NC1=O)C3=O)c1nnc(C)n1-2 (some centres undefined)	0.82 µM	0.183 µM	0.15 µM	Active	0.325 µM	–	IC50 (KARPAS-299; karpas-299): 0.913 µM; Activity [8]: Active; IC50 (NB-4): 0.0926 µM; Activity (NB-4; time 3.0 day): Active; fold change (FC) [9]: 7; IC50 (Daudi): 0.266 µM; IC50 (HL-60): 0.343 µM; Activity (HL-60; time 3.0 day): Active; Activity [10]: Active; IC50 (SU-DHL-1): 0.195 µM; Activity (A9): No effect; IC50 (THP-1): 0.553 µM; Activity (THP-1; time 3.0 day): Active; Activity (MOLM-13 [1]; time 3.0 day): Active; IC50 (OCI-AML-3; oci-aml-3): 0.381 µM; Activity (OCI-AML-3; time 3.0 day): Active
